From patent US8865623B2, “Herbicidally active cyclic diones and derivatives thereof, processes for their preparation, compositions, and method of controlling weeds” (Syngenta Limited, priority 2009, dated 2014)

Legend:
Type in all cases: in vivo
[1] = system: Alopecurus myosuroides (ALOMY); experiment: Pre-emergence herbicidal activity, glasshouse pot test; settings: Alopecurus myosuroides, 312 h; Rate 250 g/ha; pre-emergence spray; evaluated after 13 days; read-out: Pre-emergence activity ALOMY (100=total damage to plant; 0=no damage to plant)
Method in brief: (§1)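 Plants in standard-soil pots, glasshouse at 24/16° C, 14 h photoperiod, 65% humidity. Aqueous spray (acetone/water 50:50 formulation, 0.5% Tween 20) applied pre-emergence at day 1 or post-emergence at day 8. Percent damage recorded after 13 days.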

Avena fatua (AVEFA) [2] = experiment: as above; settings: Avena fatua, 312 h; Rate 250 g/ha; pre-emergence spray; evaluated after 13 days; read-out: Pre-emergence activity AVEFA (100=total damage to plant; 0=no damage to plant)
Method in brief: as §1

[3] = system: Echinochloa crus-galli (ECHCG); experiment: as above; settings: Echinochloa crus-galli, 312 h; Rate 250 g/ha; pre-emergence spray; evaluated after 13 days; read-out: Pre-emergence activity ECHCG (100=total damage to plant; 0=no damage to plant)
Method in brief: as §1

Lolium perenne (LOLPE) [4] = experiment: as above; settings: Lolium perenne, 312 h; Rate 250 g/ha; pre-emergence spray; evaluated after 13 days; read-out: Pre-emergence activity LOLPE (100=total damage to plant; 0=no damage to plant)
Method in brief: as §1

[5] = system: Alopecurus myosuroides (ALOMY); experiment: Post-emergence herbicidal activity, glasshouse pot test; settings: Alopecurus myosuroides, 312 h, rate 250 g/ha, evaluated after 13 days, glasshouse, read-out: Post-emergence activity ALOMY (100=total damage to plant; 0=no damage to plant)
Method in brief: as §1

Avena fatua (AVEFA) [6] = experiment: as above; settings: Avena fatua, 312 h, rate 250 g/ha, evaluated after 13 days, glasshouse, read-out: Post-emergence activity AVEFA (100=total damage to plant; 0=no damage to plant)
Method in brief: as §1

[7] = system: Echinochloa crus-galli (ECHCG); experiment: as above; settings: Echinochloa crus-galli, 312 h, rate 250 g/ha, evaluated after 13 days, glasshouse, read-out: Post-emergence activity ECHCG (100=total damage to plant; 0=no damage to plant)
Method in brief: as §1

Lolium perenne (LOLPE) [8] = experiment: as above; settings: Lolium perenne, 312 h, rate 250 g/ha, evaluated after 13 days, glasshouse, read-out: Post-emergence activity LOLPE (100=total damage to plant; 0=no damage to plant)
Method in brief: as §1

| Compound | pest or weed control at 250 g/ha [1] | pest or weed control at 250 g/ha (Avena fatua (AVEFA) [2]) | pest or weed control at 250 g/ha [3] | pest or weed control at 250 g/ha (Lolium perenne (LOLPE) [4]) | pest or weed control at 250 g/ha [5] | pest or weed control at 250 g/ha (Avena fatua (AVEFA) [6]) | pest or weed control at 250 g/ha [7] | pest or weed control at 250 g/ha (Lolium perenne (LOLPE) [8]) |
| --- | --- | --- | --- | --- | --- | --- | --- | --- |
| CCc1ccc(Oc2ccc(F)cc2[N+](=O)[O-])cc1C1=C(O)C(C)(C)OC(C)(C)C1=O [Example A-230] | 0% | 0% | 20% | 0% | 20% | 60% | 80% | 40% |
| CCc1ccc(Oc2c(Cl)cc(C(F)(F)F)cc2Cl)cc1C1=C(O)C(C)(C)OC(C)(C)C1=O [Example A-204] | 0% | 0% | 20% | 10% | 60% | 50% | 70% | 40% |
| CCc1ccc(Oc2ccc(Cl)c(F)c2)cc1C1=C(O)[C@H]2CC[C@H](C2)C1=O [Example A-249] | 60% | 60% | 90% | 90% | 90% | 100% | 100% | 70% |
| CCc1ccc(Oc2nc3c(Cl)c(OC)ccc3s2)cc1C1=C(O)C(C)(C)OC(C)(C)C1=O [Example A-216] | 30% | 0% | 70% | 10% | 60% | 70% | 80% | 70% |
| CCc1ccc(Oc2ccc3ccccc3n2)cc1C1=C(O)C(C)(C)OC(C)(C)C1=O [Example A-223] | 80% | 50% | 100% | 90% | 100% | 60% | 100% | 90% |
| CCc1ccc(Oc2nc3cc(OC)ccc3s2)cc1C1=C(O)C(C)(C)OC(C)(C)C1=O [Example A-217] | 30% | 0% | 40% | 60% | 60% | 50% | 70% | 60% |
| CCc1ccc(Oc2cnc3ccc(Br)cc3n2)cc1C1=C(O)CC(C)(C)CC1=O [Example A-289] | 60% | 40% | 100% | 90% | 100% | 100% | 100% | 100% |
| CCc1ccc(Oc2ccc(C#N)cc2F)cc1C1=C(O)C(C)(C)OC(C)(C)C1=O [Example A-21] | 0% | 0% | 30% | 20% | 100% | 60% | 100% | 70% |
| CCc1ccc(Oc2ncc(Cl)cc2Cl)cc1C1=C(O)[C@@H]2CC[C@](C)(C1=O)C2(C)C [Example A-318] | 90% | 90% | 100% | 100% | 90% | 90% | 100% | 100% |
| CCc1ccc(Oc2ccc(C#N)cc2C(F)(F)F)cc1C1=C(O)CC2(CCOCC2)CC1=O [Example A-306] | 60% | 0% | 100% | 70% | 70% | 80% | 100% | 60% |
